Measurements published in the OPERA property sets (Mansouri et al. 2018).

With `O=C1CC(=O)N(c2ccccc2)O1` the logP was 0.54.
Work on `NC(=O)NS(=O)(=O)Cc1ccccc1` yielded a logP of 0.24.
For `O=C1CC(=O)C(c2ccccc2)O1` (configuration not stated), the logP was 1.47.
Work on `O=C1CNC(=O)N1c1ccccc1` yielded a logP of 0.04.
`O=C1CC(=O)N(Cc2ccccc2)C1` gave a logP of 0.76.
`NS(=O)(=O)NC(=O)Cc1ccccc1` showed a logP of 0.31.
`O=C1CC(=O)C(c2ccccc2)N1` (configuration not stated) showed a logP of 0.48.
With `O=c1[nH]c(=O)n(-c2ccccc2)o1` the logP was 1.74.
Work on `O=C1NC(=O)C(Cc2ccccc2)S1` (configuration not stated) yielded a logP of 1.98.
Work on `O=C1NC(=O)C(c2ccccc2)O1` (configuration not stated) yielded a logP of 1.09.
`O=C1NC(=O)C(c2ccccc2)C1=O` (configuration not stated) showed a logP of 2.26.
Compound `O=C1NC(=O)C(Cc2ccccc2)O1` (configuration not stated) has a logP of 1.2.
`O=C1NC(=O)C(Cc2ccccc2)N1` (configuration not stated) showed a logP of 0.6.
Compound `O=C1CN(Cc2ccccc2)C(=O)N1` has a logP of 0.76.
Compound `O=C1CN(c2ccccc2)C(=O)N1` has a logP of 0.83.
With `O=C1NC(=O)N(Cc2ccccc2)C1=O` the logP was 1.19.
With `O=C1NC(=O)N(c2ccccc2)C1=O` the logP was 0.6.
